Tested on: 556581-035-R-J1-PDC complex spheroid growth
Experiment: Anticancer human tumor 556581-035-R-J1-PDC patient-derived ovarian carcinoma cell line growth inhibition [AhR]
Conditions: for IC50: curve of first compound; for viability, T/C: stronger effect = lower value; active means viability on the fitted dose curve at most 10% of control; inactive means the rest
Description: Multicellular complex tumor spheroid response to aryl hydrocarbon receptor antagonists in combination with a variety of drugs and investigational agents in selected tumor cell lines
The current study was undertaken to assess response to aryl hydrocarbon receptor antagonists in combination with standard-of-care drugs and investigational agents in solid tumor complex spheroid models. Complex spheroids include a stromal component modeled by human endothelial cells (HUVEC) and fibroblasts modeled by human mesenchymal stem cells (MSCs). The concentration ranges selected for each drug and investigational agent were based upon clinically achievable concentrations if the clinical Cmax of the agent was known.
Compounds. The drugs and investigational agents: BAY 2416964 (NSC825713), GNF351 (NSC835774), CH-223191 (NSC835775), CPI-455 (NSC825282), aza-TdCyd (NSC777586), decitabine (NSC127716), belinostat (NSC758774), entinostat (NSC756642), pevonedistat (NSC761192), tazemetostat (NSC777109), talazoparib (NSC765396), olaparib (NSC753686), selinexor (NSC780203), nedisertib (M3814, NSC802822), bortezomib (NSC756655), venetoclax (NSC766270), doxorubicin (NSC123127), elimusertib (BAY189344, NSC800525), ceralasertib (AZD6738, NSC777638), TAK-243 (NSC785004), alisertib (NSC759677), etoposide (NSC141540), topotecan (NSC609699), eribulin (NSC707389), gemcitabine (NSC613327), carboplatin (NSC241240), cisplatin (NSC119875), and SN-38 (NSC673596) were obtained from the National Cancer Institute (NCI) Developmental Therapeutics Program Chemical Repository (32). The FDA-approved anticancer drug set is available from the Developmental Therapeutics Program at https://dtp.cancer.gov/organization/dscb/obtaining/available plates.htm. […] The stock solutions were prepared in dimethyl sulfoxide (DMSO, Sigma-Aldrich, St. Louis, MO, cat. D2650), except for the platinum compounds which were prepared in saline (Quality Biological, Gaithersburg, MD, cat. 114-055-101), at 800-fold the tested concentration and stored at -70 degrees C prior to their use. All drugs and investigational agents were tested over a range starting from a high concentration at or near the clinical Cmax and decreasing in half-log increments. If the clinical Cmax for an agent had not been determined, the highest concentration tested was 10 microM (Table 1).
Cell Culture. All cells were maintained in an incubator at 37 degrees C and 5% CO2 with 95% humidity. The PDC lines were cultured according to standard operating procedures established by the NCI PDMR (https://pdmr.cancer.gov). Briefly, all PDCs were thawed and cultured in Matrigel-coated flasks prepared with a working solution of 1X Ham's F-12 nutrient mix, without supplementation (Invitrogen, Waltham, MA, cat. 11765054), 100 U/mL penicillin-streptomycin (Invitrogen, cat. 15140122), and 2.5% Matrigel (Corning Inc., Corning, NY, cat. 354248) for the first three passages. All PDCs were cultured in complete DMEM/F-12 media containing advanced DMEM/F-12 (Invitrogen, cat. 12634028), 4.9% defined fetal bovine serum, heat inactivated (HyClone Laboratories Inc., Logan, UT, cat. SH30070.03HI), 389 ng/mL hydrocortisone (Sigma-Aldrich, cat. H4001), 9.7 ng/mL human EGF recombinant protein (Invitrogen, cat. PHG0313), 23.4 microg/mL adenine (Sigma-Aldrich, cat. A2786), 97.3 U/mL penicillin-streptomycin (Invitrogen, cat. 15140122), 1.9 mM L-glutamine (Invitrogen, cat. 25030081), and 9.7 microM Y-27632 dihydrochloride (Tocris Bioscience, Bristol, United Kingdom, cat. 1254). The PDCs were cultured in complete DMEM/F12 media without 10 microM Y-27632 dihydrochloride for at least two passages prior to the screen. The established cell lines NCI-H1341 and […] were cultured in DMEM/F-12, HEPES (Invitrogen, cat. 11330032), 5% defined fetal bovine serum (HyClone Laboratories Inc., cat. SH30070.03), ITS premix universal culture supplement [insulin (5 microg/mL), transferrin (5 microg/mL), and selenious acid (5 ng/mL)] […]

[1] = second compound 0.1 µM, first compound 0.0316 µM
[2] = second compound 0.1 µM, first compound 0.1 µM
[3] = second compound 0.316 µM, first compound 0.0316 µM
[4] = second compound 0.316 µM, first compound 0.1 µM
[5] = second compound 1 µM, first compound 0.0316 µM
[6] = second compound 1 µM, first compound 0.1 µM
[7] = second compound 3.16 µM, first compound 0.0316 µM
[8] = second compound 3.16 µM, first compound 0.1 µM
[9] = second compound 10 µM, first compound 0.0316 µM
[10] = second compound 10 µM, first compound 0.1 µM
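Wherever viability, T/C is given: compound exposure lasted 7 days.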

CC[C@@]1(O)C(=O)OCc2c1cc1n(c2=O)Cc2cc3c(CN(C)C)c(O)ccc3nc2-1 + CC(CO)NC(=O)c1cc(-c2ccc(Cl)cc2)nn(-c2cnn(C)c2)c1=O
> 100 nM: IC50 (second compound 0.1 µM) | IC50 (second compound 0.316 µM) | IC50 (second compound 1 µM)
84.6 nM: IC50 (second compound 10 µM)
87.8 nM: IC50 (second compound 3.16 µM)
inactive: viability, T/C (second compound 0.1 µM, first compound 0.000316 µM) 102% | viability, T/C (second compound 0.1 µM, first compound 0.001 µM) 95.5% | viability, T/C (second compound 0.1 µM, first compound 0.00316 µM) 90.4% | viability, T/C (second compound 0.1 µM, first compound 0.01 µM) 86.8% | viability, T/C [1] 69.7% | viability, T/C [2] 51.7% | viability, T/C (second compound 0.316 µM, first compound 0.000316 µM) 97.2% | viability, T/C (second compound 0.316 µM, first compound 0.001 µM) 98% | viability, T/C (second compound 0.316 µM, first compound 0.00316 µM) 92.9% | viability, T/C (second compound 0.316 µM, first compound 0.01 µM) 80.6% | viability, T/C [3] 69.5% | viability, T/C [4] 58.6% | viability, T/C (second compound 1 µM, first compound 0.000316 µM) 101% | viability, T/C (second compound 1 µM, first compound 0.001 µM) 110% | viability, T/C (second compound 1 µM, first compound 0.00316 µM) 93.6% | viability, T/C (second compound 1 µM, first compound 0.01 µM) 80.8% | viability, T/C [5] 75% | viability, T/C [6] 57.3% | viability, T/C (second compound 3.16 µM, first compound 0.000316 µM) 90.5% | viability, T/C (second compound 3.16 µM, first compound 0.001 µM) 97% | viability, T/C (second compound 3.16 µM, first compound 0.00316 µM) 91.4% | viability, T/C (second compound 3.16 µM, first compound 0.01 µM) 78.2% | viability, T/C [7] 65.9% | viability, T/C [8] 47.8% | viability, T/C (second compound 10 µM, first compound 0.000316 µM) 100% | viability, T/C (second compound 10 µM, first compound 0.001 µM) 101% | viability, T/C (second compound 10 µM, first compound 0.00316 µM) 94.7% | viability, T/C (second compound 10 µM, first compound 0.01 µM) 93.2% | viability, T/C [9] 70.5% | viability, T/C [10] 46.5%

Nc1ccn(C2OC(CO)C(O)C2(F)F)c(=O)n1 (stereo not given) + Cc1ccccc1N=Nc1ccc(NC(=O)c2ccnn2C)c(C)c1
inactive: viability, T/C [1] 35.5% | viability, T/C [2] 41.6% | viability, T/C (second compound 0.1 µM, first compound 0.316 µM) 38.4% | viability, T/C (second compound 0.1 µM, first compound 1 µM) 34.7% | viability, T/C (second compound 0.1 µM, first compound 3.16 µM) 35.5% | viability, T/C (second compound 0.1 µM, first compound 10 µM) 34% | viability, T/C [3] 31.9% | viability, T/C [4] 37.4% | viability, T/C (second compound 0.316 µM, first compound 0.316 µM) 38.4% | viability, T/C (second compound 0.316 µM, first compound 1 µM) 37.6% | viability, T/C (second compound 0.316 µM, first compound 3.16 µM) 35.4% | viability, T/C (second compound 0.316 µM, first compound 10 µM) 32.4% | viability, T/C [5] 38.3% | viability, T/C [6] 37.2% | viability, T/C (second compound 1 µM, first compound 0.316 µM) 41.1% | viability, T/C (second compound 1 µM, first compound 1 µM) 36.2% | viability, T/C (second compound 1 µM, first compound 3.16 µM) 33.9% | viability, T/C (second compound 1 µM, first compound 10 µM) 30% | viability, T/C [7] 36.1% | viability, T/C [8] 36.9% | viability, T/C (second compound 3.16 µM, first compound 0.316 µM) 37.6% | viability, T/C (second compound 3.16 µM, first compound 1 µM) 37.7% | viability, T/C (second compound 3.16 µM, first compound 3.16 µM) 37.1% | viability, T/C (second compound 3.16 µM, first compound 10 µM) 29% | viability, T/C [9] 38% | viability, T/C [10] 42.6% | viability, T/C (second compound 10 µM, first compound 0.316 µM) 40.9% | viability, T/C (second compound 10 µM, first compound 1 µM) 39.7% | viability, T/C (second compound 10 µM, first compound 3.16 µM) 37.7% | viability, T/C (second compound 10 µM, first compound 10 µM) 35.6%
< 31.6 nM: IC50 (second compound 0.1 µM) | IC50 (second compound 0.316 µM) | IC50 (second compound 1 µM) | IC50 (second compound 3.16 µM) | IC50 (second compound 10 µM)

CCc1c2c(nc3ccc(O)cc13)-c1cc3c(c(=O)n1C2)COC(=O)[C@]3(O)CC + CC(CO)NC(=O)c1cc(-c2ccc(Cl)cc2)nn(-c2cnn(C)c2)c1=O
inactive: viability, T/C (second compound 0.1 µM, first compound 0.000949 µM) 77.2% | viability, T/C (second compound 0.1 µM, first compound 0.003 µM) 73.5% | viability, T/C (second compound 0.1 µM, first compound 0.00949 µM) 49.5% | viability, T/C (second compound 0.1 µM, first compound 0.03 µM) 36.7% | viability, T/C (second compound 0.1 µM, first compound 0.0949 µM) 19.2% | viability, T/C (second compound 0.1 µM, first compound 0.3 µM) 11.6% | viability, T/C (second compound 0.316 µM, first compound 0.000949 µM) 81.5% | viability, T/C (second compound 0.316 µM, first compound 0.003 µM) 79.6% | viability, T/C (second compound 0.316 µM, first compound 0.00949 µM) 60.7% | viability, T/C (second compound 0.316 µM, first compound 0.03 µM) 36.9% | viability, T/C (second compound 0.316 µM, first compound 0.0949 µM) 20.6% | viability, T/C (second compound 0.316 µM, first compound 0.3 µM) 12.1% | viability, T/C (second compound 1 µM, first compound 0.000949 µM) 77.3% | viability, T/C (second compound 1 µM, first compound 0.003 µM) 74.2% | viability, T/C (second compound 1 µM, first compound 0.00949 µM) 59.5% | viability, T/C (second compound 1 µM, first compound 0.03 µM) 36.8% | viability, T/C (second compound 1 µM, first compound 0.0949 µM) 21.4% | viability, T/C (second compound 1 µM, first compound 0.3 µM) 11.3% | viability, T/C (second compound 3.16 µM, first compound 0.000949 µM) 73.6% | viability, T/C (second compound 3.16 µM, first compound 0.003 µM) 67% | viability, T/C (second compound 3.16 µM, first compound 0.00949 µM) 52.6% | viability, T/C (second compound 3.16 µM, first compound 0.03 µM) 34.9% | viability, T/C (second compound 3.16 µM, first compound 0.0949 µM) 18% | viability, T/C (second compound 10 µM, first compound 0.000949 µM) 80.2% | viability, T/C (second compound 10 µM, first compound 0.003 µM) 69.9% | viability, T/C (second compound 10 µM, first compound 0.00949 µM) 56.9% | viability, T/C (second compound 10 µM, first compound 0.03 µM) 30% | viability, T/C (second compound 10 µM, first compound 0.0949 µM) 18%
15.7 nM: IC50 (second compound 1 µM)
16.4 nM: IC50 (second compound 0.316 µM)
11.5 nM: IC50 (second compound 3.16 µM)
active: viability, T/C (second compound 3.16 µM, first compound 0.3 µM) 9.46% | viability, T/C (second compound 10 µM, first compound 0.3 µM) 8.73%
12.1 nM: IC50 (second compound 10 µM)
11.7 nM: IC50 (second compound 0.1 µM)

Source: PubChem BioAssay AID1918999 (Molecular Pharmacology Branch, DTP, NCI, 2023)
